Assay results as given in US11028086B2, “Pyrido-imidazo rifamycins” (Biofer S.p.A., priority 2017, dated 2021).
Converted amounts (≈) assume the structure as drawn.

How the values were obtained:
Format in all cases: cell-based
[1] = system: Staphylococcus aureus IM149; test: MIC by serial dilution, Strain A; conditions: for MIC: range between last concentration with growth and first without growth
Protocol: (§1) The MICs were calculated using the serial dilution method, and are expressed as the range between the last concentration at which the bacterial strain grows and the first concentration at which the strain tested no longer grows.

[2] = system: Escherichia Coli ATCC 25922; test: MIC by serial dilution, Strain C; conditions: ATCC25922, range between last concentration with growth and first without growth
Protocol: as §1

[3] = system: Bacillus Subtilis ATCC 6633; test: MIC by serial dilution, Strain B; conditions: ATCC6633, range between last concentration with growth and first without growth
Protocol: as §1

[4] = system: Escherichia Coli NK12; test: MIC by serial dilution, Strain D; conditions: COLINK12, range between last concentration with growth and first without growth
Protocol: as §1

[5] = system: Gram-positive and Gram-negative strains; test: Antibacterial activity, overall statements on the MIC test
Protocol: as §1

Structure (SMILES) | MIC against strain A compared with RFX [1] | MIC [1] [µg/mL] | MIC [2] [µg/mL] | MIC [3] [µg/mL] | MIC [4] [µg/mL] | antibacterial activity (in words) [5]
CO[C@H]1/C=C/O[C@@]2(C)Oc3c(C)c(O)c4c(O)c(c5c(nc6cc(/C=N/C(C)C)ccn65)c4c3C2=O)NC(=O)/C(C)=C\C=C\[C@H](C)[C@H](O)[C@@H](C)[C@@H](O)[C@@H](C)[C@H](OC(C)=O)[C@@H]1C [Example 14] | lower than RFX | 0.03 to 0.06 (≈ 0.0357 to 0.0713 µM) | 8 to 16 (≈ 9.51 to 19 µM) | 8 to 16 (≈ 9.51 to 19 µM) | 8 to 16 (≈ 9.51 to 19 µM) | fully comparable to that of RFX
CO[C@H]1/C=C/O[C@@]2(C)Oc3c(C)c(O)c4c(O)c(c5c(nc6ccc(/C=N/N7CCCCC7)cn65)c4c3C2=O)NC(=O)/C(C)=C\C=C\[C@H](C)[C@H](O)[C@@H](C)[C@@H](O)[C@@H](C)[C@H](OC(C)=O)[C@@H]1C [Example 8, 5′-[(1-piperidinyl)iminomethyl]-4-desoxypyrido[1′,2′-1,2]imidazo[5,4-c]rifamycin SV] |  | 0.03 to 0.06 (≈ 0.034 to 0.068 µM) | 4 to 8 (≈ 4.54 to 9.07 µM) | 0.062 to 0.125 (≈ 0.0703 to 0.142 µM) | 8 to 16 (≈ 9.07 to 18.1 µM) | 
CO[C@H]1/C=C/O[C@@]2(C)Oc3c(C)c(O)c4c(O)c(c5c(nc6cc(CO)ccn65)c4c3C2=O)NC(=O)/C(C)=C\C=C\[C@H](C)[C@H](O)[C@@H](C)[C@@H](O)[C@@H](C)[C@H](OC(C)=O)[C@@H]1C [Example 1, 4′-methylol-4-desoxypyrido[1′,2′-1,2]imidazo[5,4-c]rifamycin SV] |  | 8 to 16 (≈ 9.98 to 20 µM) | 8 to 16 (≈ 9.98 to 20 µM) | 2 to 4 (≈ 2.49 to 4.99 µM) | 4 to 8 (≈ 4.99 to 9.98 µM) | 
CO[C@H]1/C=C/O[C@@]2(C)Oc3c(C)c(O)c4c(O)c(c5c(nc6cc(/C=N/N7CCOCC7)ccn65)c4c3C2=O)NC(=O)/C(C)=C\C=C\[C@H](C)[C@H](O)[C@@H](C)[C@@H](O)[C@@H](C)[C@H](OC(C)=O)[C@@H]1C [Example 15] | lower than RFX | < 0.015 | 8 to 16 (≈ 9.05 to 18.1 µM) | 8 to 16 (≈ 9.05 to 18.1 µM) | 4 to 8 (≈ 4.52 to 9.05 µM) | fully comparable to that of RFX
CO[C@H]1/C=C/O[C@@]2(C)Oc3c(C)c(O)c4c(O)c(c5c(nc6cc(/C=N/N(C)C)ccn65)c4c3C2=O)NC(=O)/C(C)=C\C=C\[C@H](C)[C@H](O)[C@@H](C)[C@@H](O)[C@@H](C)[C@H](OC(C)=O)[C@@H]1C [Example 5, 4′-[(N,N-dimethylamino)iminomethyl]-4-desoxypyrido[1′,2′-1,2]imidazo[5,4-c]rifamycin SV] |  | 0.03 to 0.06 (≈ 0.0356 to 0.0713 µM) | 32 to 64 (≈ 38 to 76 µM) | 0.062 to 0.125 (≈ 0.0736 to 0.148 µM) | 32 to 64 (≈ 38 to 76 µM) | 
CO[C@H]1/C=C/O[C@@]2(C)Oc3c(C)c(O)c4c(O)c(c5c(nc6cc(/C=N/NC(=O)c7ccncc7)ccn65)c4c3C2=O)NC(=O)/C(C)=C\C=C\[C@H](C)[C@H](O)[C@@H](C)[C@@H](O)[C@@H](C)[C@H](OC(C)=O)[C@@H]1C [Example 6, 4′-[(4-carboxyamidopyridyl)iminomethyl]-4-desoxypyrido[1′,2′-1,2]imidazo[5,4-c]rifamycin SV] |  | > 64 | > 64 | 8 to 16 (≈ 8.71 to 17.4 µM) | 32 to 64 (≈ 34.8 to 69.6 µM) | 
CO/N=C/c1ccn2c(c1)nc1c3c4c5c(C)c(O)c3c(O)c(c12)NC(=O)/C(C)=C\C=C\[C@H](C)[C@H](O)[C@@H](C)[C@@H](O)[C@@H](C)[C@H](OC(C)=O)[C@H](C)[C@@H](OC)/C=C/O[C@@](C)(O5)C4=O [Example 13, 4′-(N-methoxy)-iminomethyl-4-desoxypyrido[1′,2′-1,2]imidazo[5,4-c]rifamycin SV] | lower than RFX | < 0.015 | 8 to 16 (≈ 9.65 to 19.3 µM) | < 0.015 | 8 to 16 (≈ 9.65 to 19.3 µM) | fully comparable to that of RFX
CO[C@H]1/C=C/O[C@@]2(C)Oc3c(C)c(O)c4c(O)c(c5c(nc6cc(C=O)ccn65)c4c3C2=O)NC(=O)/C(C)=C\C=C\[C@H](C)[C@H](O)[C@@H](C)[C@@H](O)[C@@H](C)[C@H](OC(C)=O)[C@@H]1C [Example 2, 4′-formyl-4-desoxypyrido[1′,2′-1,2]imidazo[5,4-c]rifamycin SV] |  | > 64 | > 64 | > 64 | > 64 | 
CO[C@H]1/C=C/O[C@@]2(C)Oc3c(C)c(O)c4c(O)c(c5c(nc6cc(/C=N/N7CCCCC7)ccn65)c4c3C2=O)NC(=O)/C(C)=C\C=C\[C@H](C)[C@H](O)[C@@H](C)[C@@H](O)[C@@H](C)[C@H](OC(C)=O)[C@@H]1C [Example 4, 4′-[(1-piperidinyl)iminomethyl]-4-desoxypyrido[1′,2′-1,2]imidazo[5,4-c]rifamycin SV] |  | 0.03 to 0.06 (≈ 0.034 to 0.068 µM) | 4 to 8 (≈ 4.54 to 9.07 µM) | 0.062 to 0.125 (≈ 0.0703 to 0.142 µM) | 8 to 16 (≈ 9.07 to 18.1 µM) | 
CO[C@H]1/C=C/O[C@@]2(C)Oc3c(C)c(O)c4c(O)c(c5c(nc6ccc(/C=N/N(C)C)cn65)c4c3C2=O)NC(=O)/C(C)=C\C=C\[C@H](C)[C@H](O)[C@@H](C)[C@@H](O)[C@@H](C)[C@H](OC(C)=O)[C@@H]1C [Example 7, 5′-[(N,N-dimethylamino)iminomethyl]-4-desoxypyrido[1′,2′-1,2]imidazo[5,4-c]rifamycin SV] |  | 0.03 to 0.06 (≈ 0.0356 to 0.0713 µM) | 32 to 64 (≈ 38 to 76 µM) | 0.062 to 0.125 (≈ 0.0736 to 0.148 µM) | 32 to 64 (≈ 38 to 76 µM) | 
CO[C@H]1/C=C/O[C@@]2(C)Oc3c(C)c(O)c4c(O)c(c5c(nc6ccc(/C=N/N(C)C)cn65)c4c3C2=O)NC(=O)/C(C)=C\C=C\[C@H](C)[C@H](O)[C@@H](C)[C@@H](O)[C@@H](C)[C@H](O)[C@@H]1C [Example 12, 25-desacetyl-5′-[(N,N-dimethylamino)iminomethyl]-4-desoxypyrido[1′,2′-1,2]imidazo[5,4-c]rifamycin SV] |  | 8 to 16 (≈ 10 to 20 µM) | > 64 | 4 to 8 (≈ 5 to 10 µM) | > 64 | 
CO[C@H]1/C=C/O[C@@]2(C)Oc3c(C)c(O)c4c(O)c(c5c(nc6ccc(/C=N/N7CCCCC7)cn65)c4c3C2=O)NC(=O)/C(C)=C\C=C\[C@H](C)[C@H](O)[C@@H](C)[C@@H](O)[C@@H](C)[C@H](O)[C@@H]1C [Example 11, 25-desacetyl-5′-[(1-piperidinyl)iminomethyl]-4-desoxypyrido[1′,2′-1,2]imidazo[5,4-c]rifamycin SV] |  | 8 to 16 (≈ 9.52 to 19 µM) | 32 to 64 (≈ 38.1 to 76.2 µM) | 4 to 8 (≈ 4.76 to 9.52 µM) | 32 to 64 (≈ 38.1 to 76.2 µM) | 
